# BindingDB's records for doi:10.1016/s0960-894x(01)00095-6 (Seoul National University, 2001)
# Biological target: Methionine--tRNA ligase (Escherichia coli) (UniProt P00959)
# Experiment: Inhibition of [35S]methionyl incorporation by Escherichia coli methionyl-tRNA synthetase (MetRS)
# Sequence of Methionine--tRNA ligase (Escherichia coli) (P00959 whole entry, looked up): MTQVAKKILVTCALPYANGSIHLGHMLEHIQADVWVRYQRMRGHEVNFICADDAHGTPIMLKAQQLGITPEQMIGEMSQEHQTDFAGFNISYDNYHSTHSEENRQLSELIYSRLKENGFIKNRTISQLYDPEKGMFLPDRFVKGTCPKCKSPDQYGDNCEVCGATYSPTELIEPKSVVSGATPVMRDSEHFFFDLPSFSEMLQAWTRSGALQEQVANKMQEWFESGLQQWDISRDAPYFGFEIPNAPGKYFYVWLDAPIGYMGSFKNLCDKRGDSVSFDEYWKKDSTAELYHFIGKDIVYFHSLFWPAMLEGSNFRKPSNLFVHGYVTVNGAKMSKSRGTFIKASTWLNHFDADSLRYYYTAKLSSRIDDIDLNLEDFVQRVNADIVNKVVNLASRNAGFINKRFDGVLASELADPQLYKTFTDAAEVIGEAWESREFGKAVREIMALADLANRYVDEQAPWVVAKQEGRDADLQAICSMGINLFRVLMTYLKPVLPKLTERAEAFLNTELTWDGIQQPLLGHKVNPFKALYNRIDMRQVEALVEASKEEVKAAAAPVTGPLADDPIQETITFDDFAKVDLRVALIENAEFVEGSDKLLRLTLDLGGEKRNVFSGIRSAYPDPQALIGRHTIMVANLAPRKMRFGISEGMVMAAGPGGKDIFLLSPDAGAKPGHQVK
row,IC50,Compound
1,8.3 µM,"CSCC[C@H](N)C(=O)OC[C@H]1O[C@@H](CCn2cnc3c(N)ncnc32)[C@H](O)[C@@H]1O [(S)-1-{(2R,3S,4R,5S)-5-[2-(6-Amino-purin-9-yl)-ethyl]-3,4-dihydroxy-tetrahydro-furan-2-ylmethoxycarbonyl}-3-methylsulfanyl-propyl-ammonium]"
2,3.6 µM,"CSCC[C@H](N)C(=O)OC[C@H]1O[C@@H](Cn2cnc3c(N)ncnc32)[C@H](O)[C@@H]1O [(S)-1-[(2R,3S,4R,5S)-5-(6-Amino-purin-9-ylmethyl)-3,4-dihydroxy-tetrahydro-furan-2-ylmethoxycarbonyl]-3-methylsulfanyl-propyl-ammonium]"
3,> 256 µM,"CSCC[C@H](N)C(=O)OC[C@H]1O[C@@H](CCn2nnc(-c3ccccc3)n2)[C@H](O)[C@@H]1O [(S)-1-{(2R,3S,4R,5S)-3,4-Dihydroxy-5-[2-(5-phenyl-tetrazol-2-yl)-ethyl]-tetrahydro-furan-2-ylmethoxycarbonyl}-3-methylsulfanyl-propyl-ammonium]"
4,26 µM,"CSCC[C@H](N)C(=O)N(O)C[C@H]1O[C@@H](Cn2cnc3c(N)ncnc32)[C@H](O)[C@@H]1O [(S)-1-{[(2R,3S,4R,5S)-5-(6-Amino-purin-9-ylmethyl)-3,4-dihydroxy-tetrahydro-furan-2-ylmethyl]-hydroxy-carbamoyl}-3-methylsulfanyl-propyl-ammonium]"
5,63 µM,"CSCC[C@H](N)C(=O)N(O)C[C@H]1O[C@@H](Cn2cnc3c(NCc4ccccc4)ncnc32)[C@H](O)[C@@H]1O [(S)-1-{[(2R,3S,4R,5S)-5-(6-Benzylamino-purin-9-ylmethyl)-3,4-dihydroxy-tetrahydro-furan-2-ylmethyl]-hydroxy-carbamoyl}-3-methylsulfanyl-propyl-ammonium]"
6,33.2 µM,"CSCC[C@H](N)C(=O)OC[C@H]1O[C@@H](CCn2cnc3c(NCc4ccccc4)ncnc32)[C@H](O)[C@@H]1O [(S)-1-{(2R,3S,4R,5S)-5-[2-(6-Benzylamino-purin-9-yl)-ethyl]-3,4-dihydroxy-tetrahydro-furan-2-ylmethoxycarbonyl}-3-methylsulfanyl-propyl-ammonium]"
7,27 µM,"CSCC[C@H](N)C(=O)N(O)C[C@H]1O[C@@H](n2cnc3c(N)ncnc32)[C@H](O)[C@@H]1O [(S)-1-{[(2R,3S,4R,5R)-5-(6-Amino-purin-9-yl)-3,4-dihydroxy-tetrahydro-furan-2-ylmethyl]-hydroxy-carbamoyl}-3-methylsulfanyl-propyl-ammonium]"
8,56 µM,"CSCC[C@H](N)C(=O)N(O)C[C@H]1O[C@@H](CCn2cnc3c(N)ncnc32)[C@H](O)[C@@H]1O [(S)-1-({(2R,3S,4R,5S)-5-[2-(6-Amino-purin-9-yl)-ethyl]-3,4-dihydroxy-tetrahydro-furan-2-ylmethyl}-hydroxy-carbamoyl)-3-methylsulfanyl-propyl-ammonium]"
9,34 µM,"CSCC[C@H](N)C(=O)N(O)C[C@H]1O[C@@H](CCn2nnc(-c3ccccc3)n2)[C@H](O)[C@@H]1O [(S)-1-({(2R,3S,4R,5S)-3,4-Dihydroxy-5-[2-(5-phenyl-tetrazol-2-yl)-ethyl]-tetrahydro-furan-2-ylmethyl}-hydroxy-carbamoyl)-3-methylsulfanyl-propyl-ammonium]"
10,12.2 µM,"CSCC[C@H](N)C(=O)OC[C@H]1O[C@@H](Cn2nnc(-c3ccccc3)n2)[C@H](O)[C@@H]1O [(S)-1-[(2R,3S,4R,5S)-3,4-Dihydroxy-5-(5-phenyl-tetrazol-2-ylmethyl)-tetrahydro-furan-2-ylmethoxycarbonyl]-3-methylsulfanyl-propyl-ammonium]"
11,17 µM,"CSCC[C@H](N)C(=O)N(O)C[C@H]1O[C@@H](Cn2nnc(-c3ccccc3)n2)[C@H](O)[C@@H]1O [(S)-1-{[(2R,3S,4R,5S)-3,4-Dihydroxy-5-(5-phenyl-tetrazol-2-ylmethyl)-tetrahydro-furan-2-ylmethyl]-hydroxy-carbamoyl}-3-methylsulfanyl-propyl-ammonium]"
12,16.5 µM,"CSCC[C@H](N)C(=O)OC[C@H]1O[C@@H](Cn2cnc3c(NCc4ccccc4)ncnc32)[C@H](O)[C@@H]1O [(S)-1-[(2R,3S,4R,5S)-5-(6-Benzylamino-purin-9-ylmethyl)-3,4-dihydroxy-tetrahydro-furan-2-ylmethoxycarbonyl]-3-methylsulfanyl-propyl-ammonium]"
13,23 µM,"CSCC[C@H](N)C(=O)N(O)C[C@H]1O[C@@H](CCn2cnc3c(NCc4ccccc4)ncnc32)[C@H](O)[C@@H]1O [(S)-1-({(2R,3S,4R,5S)-5-[2-(6-Benzylamino-purin-9-yl)-ethyl]-3,4-dihydroxy-tetrahydro-furan-2-ylmethyl}-hydroxy-carbamoyl)-3-methylsulfanyl-propyl-ammonium]"
14,5 µM,"CSCC[C@H](N)C(=O)OC[C@H]1O[C@@H](n2cnc3c(N)ncnc32)[C@H](O)[C@@H]1O [(S)-1-[(2R,3S,4R,5R)-5-(6-Amino-purin-9-yl)-3,4-dihydroxy-tetrahydro-furan-2-ylmethoxycarbonyl]-3-methylsulfanyl-propyl-ammonium]"

# Biological target: Isoleucine--tRNA ligase (Escherichia coli) (UniProt P00956)
# Sequence (P00956 whole entry, looked up): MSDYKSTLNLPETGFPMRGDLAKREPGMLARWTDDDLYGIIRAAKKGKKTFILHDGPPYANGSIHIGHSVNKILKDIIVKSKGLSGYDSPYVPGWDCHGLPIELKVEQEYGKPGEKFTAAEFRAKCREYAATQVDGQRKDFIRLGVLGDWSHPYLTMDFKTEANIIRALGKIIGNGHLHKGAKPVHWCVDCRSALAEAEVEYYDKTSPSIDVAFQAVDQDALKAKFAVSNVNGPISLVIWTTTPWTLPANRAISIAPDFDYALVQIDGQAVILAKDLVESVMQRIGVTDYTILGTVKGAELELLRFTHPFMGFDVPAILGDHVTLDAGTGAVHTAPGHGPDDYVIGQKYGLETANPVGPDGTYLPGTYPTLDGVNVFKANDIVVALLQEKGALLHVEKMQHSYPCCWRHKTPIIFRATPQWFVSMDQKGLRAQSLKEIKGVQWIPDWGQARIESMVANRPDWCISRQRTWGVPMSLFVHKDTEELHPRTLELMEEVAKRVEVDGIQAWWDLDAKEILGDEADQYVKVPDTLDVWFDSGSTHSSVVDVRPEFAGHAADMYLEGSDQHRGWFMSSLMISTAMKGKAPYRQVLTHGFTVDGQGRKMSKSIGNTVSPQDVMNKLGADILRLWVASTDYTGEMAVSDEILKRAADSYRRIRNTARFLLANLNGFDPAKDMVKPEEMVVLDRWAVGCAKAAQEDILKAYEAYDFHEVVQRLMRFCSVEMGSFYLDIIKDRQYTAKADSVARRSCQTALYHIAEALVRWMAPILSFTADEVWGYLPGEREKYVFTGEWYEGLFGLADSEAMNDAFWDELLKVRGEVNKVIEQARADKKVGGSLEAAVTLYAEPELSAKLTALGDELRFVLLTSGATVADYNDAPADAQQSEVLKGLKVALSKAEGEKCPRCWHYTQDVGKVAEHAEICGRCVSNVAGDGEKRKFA
# Experiment: Inhibition of [3H]isoleucyl incorporation by Escherichia coli isoleucyl-tRNA synthetase (IleRS)
row,IC50,Compound
1,> 128 µM,"CC[C@H](C)[C@H](N)C(=O)OC[C@H]1O[C@@H](Cn2cnc3c(N)ncnc32)[C@H](O)[C@@H]1O [(1S,2S)-1-[(2R,3S,4R,5S)-5-(6-Amino-purin-9-ylmethyl)-3,4-dihydroxy-tetrahydro-furan-2-ylmethoxycarbonyl]-2-methyl-butyl-ammonium]"
2,63.6 µM,"CC[C@H](C)[C@H](N)C(=O)OC[C@H]1O[C@@H](CCn2nnc(-c3ccccc3)n2)[C@H](O)[C@@H]1O [(1S,2S)-1-{(2R,3S,4R,5S)-3,4-Dihydroxy-5-[2-(5-phenyl-tetrazol-2-yl)-ethyl]-tetrahydro-furan-2-ylmethoxycarbonyl}-2-methyl-butyl-ammonium]"
3,183 µM,"CC[C@H](C)[C@H](N)C(=O)OC[C@H]1O[C@@H](n2cnc3c(N)ncnc32)[C@H](O)[C@@H]1O [(1S,2S)-1-[(2R,3S,4R,5R)-5-(6-Amino-purin-9-yl)-3,4-dihydroxy-tetrahydro-furan-2-ylmethoxycarbonyl]-2-methyl-butyl-ammonium]"
4,> 128 µM,"CC[C@H](C)[C@H](N)C(=O)N(O)C[C@H]1O[C@@H](CCn2cnc3c(N)ncnc32)[C@H](O)[C@@H]1O [(1S,2S)-1-({(2R,3S,4R,5S)-5-[2-(6-Amino-purin-9-yl)-ethyl]-3,4-dihydroxy-tetrahydro-furan-2-ylmethyl}-hydroxy-carbamoyl)-2-methyl-butyl-ammonium]"
5,> 128 µM,"CC[C@H](C)[C@H](N)C(=O)N(O)C[C@H]1O[C@@H](Cn2cnc3c(N)ncnc32)[C@H](O)[C@@H]1O [(1S,2S)-1-{[(2R,3S,4R,5S)-5-(6-Amino-purin-9-ylmethyl)-3,4-dihydroxy-tetrahydro-furan-2-ylmethyl]-hydroxy-carbamoyl}-2-methyl-butyl-ammonium]"
6,84 µM,"CC[C@H](C)[C@H](N)C(=O)OC[C@H]1O[C@@H](CCn2cnc3c(NCc4ccccc4)ncnc32)[C@H](O)[C@@H]1O [(1S,2S)-1-{(2R,3S,4R,5S)-5-[2-(6-Benzylamino-purin-9-yl)-ethyl]-3,4-dihydroxy-tetrahydro-furan-2-ylmethoxycarbonyl}-2-methyl-butyl-ammonium]"
7,> 128 µM,"CC[C@H](C)[C@H](N)C(=O)N(O)C[C@H]1O[C@@H](CCn2nnc(-c3ccccc3)n2)[C@H](O)[C@@H]1O [(1S,2S)-1-({(2R,3S,4R,5S)-3,4-Dihydroxy-5-[2-(5-phenyl-tetrazol-2-yl)-ethyl]-tetrahydro-furan-2-ylmethyl}-hydroxy-carbamoyl)-2-methyl-butyl-ammonium]"
8,> 128 µM,"CC[C@H](C)[C@H](N)C(=O)OC[C@H]1O[C@@H](CCn2cnc3c(N)ncnc32)[C@H](O)[C@@H]1O [(1S,2S)-1-{(2R,3S,4R,5S)-5-[2-(6-Amino-purin-9-yl)-ethyl]-3,4-dihydroxy-tetrahydro-furan-2-ylmethoxycarbonyl}-2-methyl-butyl-ammonium]"
9,181 µM,"CC[C@H](C)[C@H](N)C(=O)N(O)C[C@H]1O[C@@H](n2cnc3c(N)ncnc32)[C@H](O)[C@@H]1O [(1S,2S)-1-{[(2R,3S,4R,5R)-5-(6-Amino-purin-9-yl)-3,4-dihydroxy-tetrahydro-furan-2-ylmethyl]-hydroxy-carbamoyl}-2-methyl-butyl-ammonium]"
10,> 128 µM,"CC[C@H](C)[C@H](N)C(=O)N(O)C[C@H]1O[C@@H](CCn2cnc3c(NCc4ccccc4)ncnc32)[C@H](O)[C@@H]1O [(1S,2S)-1-({(2R,3S,4R,5S)-5-[2-(6-Benzylamino-purin-9-yl)-ethyl]-3,4-dihydroxy-tetrahydro-furan-2-ylmethyl}-hydroxy-carbamoyl)-2-methyl-butyl-ammonium]"
